What all share (assay type): physicochemical
A short description of series [1]: Triamcinolone acetonide remaining after storage with aluminum oxide powder (HPLC). As to the method: Aluminum oxide powder (Aldrich, neutral, activated Brockmann I, 150 mesh), which mimics aluminum oxide existing on the inner surface of aluminum containers was surface treated by being immersed in a 0.1% w/w solution of A1 in methyl tertiary butyl ether (analytical reagent grade) for 30 minutes while exposed to ultrasonic agitation. The methyl tertiary butyl ether solution was decanted and the powder was allowed to air dry. A triamcinolone stock solution (4 mM) was prepared by adding triamcinolone acetonide to ethanol. Approximately 0.1 g of treated powder was then placed in a vial containing 2 mL of triamcinolone stock solution and stored at 70° C. An extract of the triamcinolone solution was taken after one day of storage and analyzed using high performance liquid chromatography to determine remaining drug content. The amount of drug remaining is reported (in Table 1) as a percentage of the initial amount of drug present and was determined as the average of 3 independent measurements.
Aluminum oxide powder was surface treated and tested as described above with a variety of other organic surface treatment compounds. The type of compound, the amount of triamcinolone acetonide (TA) remaining after 1 day storage, and the percentage of aluminum oxide (AO) powder remaining chemically treated after exposure to drug solution in shown in Table 1.
Approximately 0.1 g of untreated aluminum oxide powder was placed in a vial containing 2 mL of triamcinolone stock solution and stored at 70° C. An extract of the triamcinolone solution was taken after one day of storage and analyzed using high performance liquid chromatography to determine remaining drug content.

A short description of series [2]: Valve deposition measurement. The source says: Metered dose inhalers (MDIs) were fired 122 times to waste. The MDI was shaken for not less than 3 seconds prior to each actuation with a delay of at least 30 seconds between successive actuations. An additional 5 shots were then fired to waste with the MDI in a valve up orientation to clean out the valve. The metering valves were then removed from the MDIs and the outside of the stem cleaned to remove any residual drug adhering to the outer surface. The valve was immersed in diluent (acetonitrile:water 75:25 v/v) and sonicated for approximately 2 hours followed by shaking for at least 30 minutes. An aliquot was removed and analyzed for drug content by conventional HPLC analysis (albuterol sulfate and pirbuterol acetate: 55% 100 mM triethylamine phosphate with 5 mM sodium dodecyl sulfate, pH 2.5/45% methanol v:v, UV detection at 225 nm; flunisolide hemihydrate: 60% water/40% acetonitrile v:v, UV detection at 244 nm). Results are reported as an average of 5 to 8 replicates unless otherwise noted.
Individual valve components (stem, tank, spring, ferrule, and bottle emptier) were initially soaked in isopropanol (analytical reagent grade) for 30 minutes while exposed to ultrasonic agitation. Excess solvent was removed and the components were air dried.
The valve components were then immersed in a 0.1% w/w solution of A1 in methyl tertiary butyl ether (analytical reagent grade) in a sealed flask with a vacuum valve that was placed in a sonicator bath. The flask was sonicated and a vacuum was pulled until air escaped from the small bore in the stems (at least 2 minutes). The vacuum valve was then closed and the sample maintained under vacuum and sonication for an additional 30 minutes. Excess coating solution was then removed and the metering valves were rinsed and sonicated under vacuum in fresh isopropanol (analytical reagent grade) for 15 minutes. Excess rinsing solution was then removed and the metering valves were rinsed and sonicated under vacuum a second time in fresh isopropanol (analytical reagent grade) for 15 minutes. Excess rinsing solution was again removed and the metering valves were dried at 50° C. for at least 12 hours. The components were then assembled to form treated metered dose inhaler metering valves.
[…] Approximately 8.7 g of medicinal formulation was added to an aluminum canister with an internal coating of FEP (tetrafluoroethylene/hexafluoropropylene copolymer). The canister was then sealed by crimping a treated valve onto the canister to form an MDI. The MDIs were stored in a valve down orientation after filling to ensure contact of the formulation with the valve. The amount of albuterol sulfate adsorbed to the valve was 112 (+/−25) μg measured according to the valve deposition method described above.

Series [3] can be described thus: Visual observation of the inside surface of the metering tanks.
Series [4] is described as follows: Triamcinolone acetonide remaining after storage in stainless steel canister (HPLC). To be noted: 2 mM in ethanol. As to the method:
The internal surface of a stainless steel metered dose inhaler canister was treated with compound A1 (n-C4F9—(CH2)11—PO3H2) as follows. The canister was initially soaked in heptane (analytical reagent grade) for 30 minutes while exposed to ultrasonic agitation. The canister was then rinsed with heptane (analytical reagent grade) for one minute followed by a rinse with isopropanol (analytical reagent grade) and allowed to air dry. The canister was then immersed in a 0.1% w/w solution of A1 in methyl tertiary butyl ether (analytical reagent grade) for 30 minutes while exposed to ultrasonic agitation. The canister was then rinsed in methyl tertiary butyl ether (analytical reagent grade) for one minute and allowed to air dry.
A triamcinolone stock solution (2 mM) was prepared by adding triamcinolone acetonide to ethanol. The canister was filled with 5 mL of the triamcinolone stock solution, sealed and stored at 70° C. An extract of the triamcinolone solution was taken after one day of storage and analyzed using high performance liquid chromatography to determine remaining drug content. […] An extract of the triamcinolone solution was taken after 7 days of storage and analyzed using high performance liquid chromatography to determine remaining drug content. The amount of triamcinolone acetonide remaining after 7 days was 83.0%.
An untreated stainless steel canister was filled with the medicinal formulation of Example 11. The amount of triamcinolone acetonide remaining after 1 day was 88.0%. An extract of the triamcinolone solution was taken after 7 days of storage and analyzed using high performance liquid chromatography to determine remaining drug content. The amount of triamcinolone acetonide remaining after 7 days was 18.0%.

[5] abbreviates: A1-treated valve, 0.02% w/w in HFA-227.
The mark [6] stands for this setting: untreated valve, 0.02% w/w in HFA-227.
[7] abbreviates: A1-treated valve vs untreated valves, 0.02% w/w in HFA-227.
Where [8] appears, read: A1-treated valve, 0.05% w/w and 10% w/w ethanol in HFA-227.
The mark [9] stands for this setting: untreated valve, 0.05% w/w and 10% w/w ethanol in HFA-227.

Regarding `CC(C)CCCC(C)CCCC(C)CCCC(C)CCP(=O)(O)O` (stereo not drawn) [A2, 1-phosphono-3,7,11,15-tetramethylhexadecane], the “% TA remaining” value in series [1] (24 h, 4 mM) was 97.4 (+/−0.1) %.
`CCCCCCCCCCCCCCCCP(=O)(O)O` [A3, 1-phosphonohexadecane]: the “% TA remaining” value in series [1] (24 h, 4 mM) was 93.2 (+/−3.6) %.
On to `CC(C)CCCC(C)CCCC(C)CCCC(C)CCC(=O)O` (stereo not drawn) [A5, Phytanyl carboxylic acid], for which the “% TA remaining” value in series [1] (24 h, 4 mM) is recorded as 71.5 (+/−3.2) %.
As for `CC1(C)O[C@@H]2C[C@H]3[C@@H]4C[C@H](F)C5=CC(=O)C=C[C@]5(C)[C@H]4[C@@H](O)C[C@]3(C)[C@]2(C(=O)CO)O1` [flunisolide], the “amount of drug adsorbed to the valve” value in series [2] (setting [5]) is given as 23 (+/−7) μg; in series [2] (setting [6]), 41 (+/−7) μg. For the same compound, in series [3] (setting [7]), the “visual observation of drug deposition in metering tanks” value (shortened to “visual observation of drug deposition”) is “considerably less drug deposition”.
Consider `CC1(C)O[C@@H]2C[C@H]3[C@@H]4CCC5=CC(=O)C=C[C@]5(C)[C@@]4(F)[C@@H](O)C[C@]3(C)[C@]2(C(=O)CO)O1` [triamcinolone acetonide], for which the “% TA remaining” value in series [1] (untreated aluminum oxide powder (C3), 4 mM triamcinolone acetonide in ethanol, 70° C, 1 day) is 11.5 (+/−1.2) %. Also, the “amount of triamcinolone acetonide remaining” value in series [4] (A1-treated stainless steel canister, 70° C, 1 day) was determined as 94.9%; in series [4] (A1-treated stainless steel canister, 70° C, 7 days), 83.0%; in series [4] (untreated stainless steel canister, 1 day), 88.0%; in series [4] (untreated stainless steel canister, 7 days), 18.0%.
For the compound albuterol sulfate, the “amount of drug adsorbed to the valve” value in series [2] (setting [8]) is recorded as 67 (+/−18) μg; in series [2] (A1-treated valve, 0.05% w/w in HFA-134A, stored valve down), 112 (+/−25) μg; in series [2] (A1-treated valve, 0.05% w/w in HFA-227), 134 (+/−54) μg; in series [2] (setting [9]), 75 (+/−9) μg; in series [2] (untreated valve, 0.05% w/w in HFA-134A), 138 (+/−24) μg; in series [2] (untreated valve, 0.05% w/w in HFA-227) it was 167 (+/−28) μg. In addition, the “visual observation of drug deposition” value in series [3] (A1-treated valve vs untreated valves, 0.05% w/w in HFA-134A) is reported as “considerably less drug deposition”; in series [3] (A1-treated valve vs untreated valves, 0.05% w/w in HFA-227), “considerably less drug deposition”; in series [3] (setting [8]) it was “minimal drug deposition”; in series [3] (setting [9]) it was “minimal drug deposition”.
As to pirbuterol acetate, the figures for the “amount of drug adsorbed to the valve” value in series [2] (setting [5]) and in series [2] (setting [6]) were 36 (+/−13) μg and 43 (+/−12) μg, respectively. Besides, the “visual observation of drug deposition” value in series [3] (setting [7]) is “considerably less drug deposition”.

The values are drawn from patent US20090050143A1, “MEDICINAL FORMULATION CONTAINER WITH A TREATED METAL SURFACE” (priority 2006, published 2009).
